ChEMBL document CHEMBL5390218, “Benzimidazole derivatives as tubulin polymerization inhibitors: Design, synthesis and in vitro cytotoxicity studies” (Bioorg Med Chem Lett, 2023)
Active and inactive are the calls of the source. The rule behind the calls is not given here.

Assays:
[1] = Selectivity index, ratio of IC50 for NRK-52E cells to ratio of IC50 for human SK-MEL-28 cells
Tubulin (Homo sapiens) = Tubulin (Homo sapiens) (UniProt P68371+Q9H4B7+P0DPH7+P68366+Q13509+Q71U36+P04350+Q3ZCM7+P07437+P68363+Q9BQE3+Q6PEY2+Q13885+Q9BVA1+Q9BUF5); experiment: Inhibition of tubulin polymerization (unknown origin) at 0.75 uM incubated for 1 hr relative to control; format: protein-complex assay
SK-MEL-28 [2] = experiment: Induction of mitochondrial membrane potential changes in human SK-MEL-28 cells assessed as J-aggregate level by measuring red fluorescence intensity at 2.5 uM incubated for 48 hrs by JC-1 staining based analysis (reference value: 98.9%); format: functional
SK-MEL-28 [3] = experiment: Induction of mitochondrial membrane potential depolarization in human SK-MEL-28 cells assessed as J-monomer level by measuring green fluorescence intensity at 2.5 uM incubated for 48 hrs by JC-1 staining based analysis (reference value: 0.8%); format: functional
SK-MEL-28 [4] = experiment: Induction of apoptosis in human SK-MEL-28 cells assessed as live cells at 5 uM incubated for 24 hrs by Annexin V-FITC/PI dual staining based flow cytometry analysis (reference value: 99.9%); format: functional
SK-MEL-28 [5] = experiment: Induction of apoptosis in human SK-MEL-28 cells assessed as early apoptotic cells at 1 uM incubated for 24 hrs by Annexin V-FITC/PI dual staining based flow cytometry analysis (reference value: 0.0%); format: functional
SK-MEL-28 [6] = experiment: Induction of apoptosis in human SK-MEL-28 cells assessed as early apoptotic cells at 2.5 uM incubated for 24 hrs by Annexin V-FITC/PI dual staining based flow cytometry analysis (reference value: 0.0%); format: functional
SK-MEL-28 [7] = experiment: Induction of apoptosis in human SK-MEL-28 cells assessed as early apoptotic cells at 5 uM incubated for 24 hrs by Annexin V-FITC/PI dual staining based flow cytometry analysis (reference value: 0.0%); format: functional
SK-MEL-28 [8] = experiment: Induction of apoptosis in human SK-MEL-28 cells assessed as late apoptotic cells at 2.5 uM incubated for 24 hrs by Annexin V-FITC/PI dual staining based flow cytometry analysis (reference value: 0.1%); format: functional
SK-MEL-28 [9] = experiment: Induction of apoptosis in human SK-MEL-28 cells assessed as necrotic cells at 1 uM incubated for 24 hrs by Annexin V-FITC/PI staining based flow cytometry analysis (reference value: 0.1%); format: functional
SK-MEL-28 [10] = experiment: Induction of apoptosis in human SK-MEL-28 cells assessed as necrotic cells at 2.5 uM incubated for 24 hrs by Annexin V-FITC/PI staining based flow cytometry analysis (reference value: 0.1%); format: functional
SK-MEL-28 [11] = experiment: Induction of apoptosis in human SK-MEL-28 cells assessed as necrotic cells at 5 uM incubated for 24 hrs by Annexin V-FITC/PI staining based flow cytometry analysis (reference value: 0.1%); format: functional
SK-MEL-28 [12] = experiment: Induction of cell cycle arrest in human SK-MEL-28 cells assessed as accumulation of cells at G2 phase at 1 uM measured after 48 hrs by PI staining based flow cytometry (reference value: 9.17%); format: functional
SK-MEL-28 [13] = experiment: Induction of cell cycle arrest in human SK-MEL-28 cells assessed as accumulation of cells at G2 phase at 2.5 uM measured after 48 hrs by PI staining based flow cytometry (reference value: 9.17%); format: functional
SK-MEL-28 [14] = experiment: Induction of cell cycle arrest in human SK-MEL-28 cells assessed as accumulation of cells at G2 phase at 5 uM measured after 48 hrs by PI staining based flow cytometry (reference value: 9.17%); format: functional
SK-MEL-28 [15] = experiment: Inhibition of cell migration in human SK-MEL-28 cells at 1 to 5 uM incubated for 0 to 48 hrs by wound healing assay; format: functional, cell-based; conditions: dose 1-5 µM, time 0-48 hrs
SK-MEL-28 [16] = experiment: Inhibition of cell migration in human SK-MEL-28 cells at 1 to 5 uM incubated for 0 to 48 hrs by phase-contrast microscopy; format: functional, cell-based; conditions: dose 1-5 µM, time 0-48 hrs
SK-MEL-28 [17] = experiment: Inhibition of colony formation in human SK-MEL-28 cells incubated for 48 hrs by crystal violet staining based colony formation assay; format: functional, cell-based; conditions: dose 1-5 µM
SK-MEL-28 [18] = experiment: Induction of morphological changes in human SK-MEL-28 cells assessed as cell shrinkage by ethidium bromide/acridine orange staining based analysis; format: functional; conditions: dose 1-5 µM
SK-MEL-28 [19] = experiment: Induction of morphological changes in human SK-MEL-28 cells assessed as membrane blebbing by ethidium bromide/acridine orange staining based analysis; format: functional, cell-based; conditions: dose 1-5 µM
SK-MEL-28 [20] = experiment: Induction of morphological changes in human SK-MEL-28 cells assessed as nuclear shrinkage at 1 to 5 uM measured after 48 hrs DAPI staining based analysis; format: functional, cell-based; conditions: dose 1-5 µM
SK-MEL-28 [21] = experiment: Induction of morphological changes in human SK-MEL-28 cells assessed as bright fragmented nuclei at 1 to 5 uM measured after 48 hrs DAPI staining based analysis; format: functional, cell-based; conditions: dose 1-5 µM

COc1cc(-c2nc3cc(F)ccc3[nH]2)ccc1OCC(=O)N1CCc2ccccc21
Selectivity Index [1]: 20
inhibition (Tubulin (Homo sapiens)): 20.4%
Activity (SK-MEL-28 [2]): 96.7%
Activity (SK-MEL-28 [3]): 3.2%
Activity (SK-MEL-28 [4]): 50.7%
Activity (SK-MEL-28 [5]): 60.8%
Activity (SK-MEL-28 [6]): 26.4%
Activity (SK-MEL-28 [7]): 1.3%
Activity (SK-MEL-28 [8]): 20.2%
Activity (SK-MEL-28 [9]): 0%
Activity (SK-MEL-28 [10]): 1%
Activity (SK-MEL-28 [11]): 13%
Activity (SK-MEL-28 [12]): 15.96%
Activity (SK-MEL-28 [13]): 24.82%
Activity (SK-MEL-28 [14]): 26.05%
inhibition (SK-MEL-28 [15]): Active
inhibition (SK-MEL-28 [16]): Active
inhibition (SK-MEL-28 [17]): Dose-Dependent Effect
Activity (SK-MEL-28 [18]): Dose-Dependent Effect
Activity (SK-MEL-28 [19]): Dose-Dependent Effect
Activity (SK-MEL-28 [20]): Active
Activity (SK-MEL-28 [21]): Active
